Results reported in US8252507B2, “Photoactive compound and photosensitive resin composition comprising the same” (LG Chem, Ltd., priority 2008, dated 2012).

Test: Solubility measurement in organic solvents
Type: physicochemical
Conditions: for Solubility in 3-MBA: amount (g) of compound completely dissolved in 3-methoxybutyl acetate; for Solubility in CH: amount (g) of compound completely dissolved in cyclohexanone; for Solubility in DPM: amount (g) of compound completely dissolved in dipropylene glycol methyl ether; for Solubility in EEP: amount (g) of compound completely dissolved in ethyl-3-ethoxy propionate; for Solubility in PGMEA: amount (g) of compound completely dissolved in propylene glycol methyl ether acetate
Description: The solubilities of Irgacure OXE-02 (Ciba Specialty Chemical) of Comparative Example 1, the compounds of Comparative Examples 2-3, and the compound of Example 1, which contains oxime ester moieties, were measured in various solvents, including propylene glycol methyl ether acetate (PGMEA), dipropylene glycol methyl ether (DPM), 3-methoxybutyl acetate (MBA), ethyl-3-ethoxy propionate (EEP) and cyclohexanone (CH). The solubility of each of the compounds was determined by measuring the amount (g) of the compound completely dissolved in the corresponding solvent.

SMILES	Solubility in 3-MBA	Solubility in CH	Solubility in DPM	Solubility in EEP	Solubility in PGMEA
CC(=O)O/N=C/c1ccc(-c2ccc(-c3nc(C(Cl)(Cl)Cl)nc(C(Cl)(Cl)Cl)n3)cc2)cc1 [Comparative Example 3, 2,4-trichloromethyl-(4′-formylbiphenylacetoxime)-6-triazine]	5 g	20 g	2 g	5 g	7 g
CC(=O)O/N=C(\C)c1ccc(-c2nc(C(Cl)(Cl)Cl)nc(C(Cl)(Cl)Cl)n2)cc1 [Comparative Example 2, 2,4-trichloromethyl-(4′-acetylphenylacetoxime)-6-triazine]	5 g	25 g	3 g	6 g	7 g
CCn1c2ccc(C(=O)c3ccccc3C)cc2c2cc(/C(C)=N/OC(C)=O)ccc21 [Comparative Example 1]	10 g	40 g	5 g	10 g	12 g
CCn1c2ccc(C(=O)c3ccc(OCC4COC(C)(C)O4)cc3)cc2c2cc(/C(CC(c3ccccc3)N(OC(C)=O)C(C)=O)=N/OC(C)=O)ccc21 (centres unmarked) [Example 1]	13 g	60 g	7 g	15 g	20 g
